Measurements: publication PMC8038054, “Bis-3-Chloropiperidines Targeting TAR RNA as A Novel Strategy to Impair the HIV-1 Nucleocapsid Protein” (Molecules, 2021)

Key:
[1] = test system: TAR RNA; test: Fluorescence quenching assay (FQA): thermal melting of TAR RNA hairpin; type: binding, HIV-1; settings: 10 μM compound, 1 μM TAR, 37 °C 2 h, BPE buffer
Description: A first insight into the putative interaction of B-CePs with RNA was offered by the investigation of the ability of the selected compounds to stabilize the TAR hairpin structure. We employed fluorescence quenching assays (FQA) to measure the ability of each B-CeP to modify the thermal denaturation profile of the TAR construct shown in Figure 1A, which was functionalized at both termini with a fluorophore-quencher couple. In this way, thermal melting of the structure can be assessed from the intensity of the detected fluorescence signal. The melting profile of TAR in the presence of increasing concentrations of each compound allowed an evaluation of the shift in melting temperature (ΔTm) from the reference value, which was determined in the absence of compound. Sample solutions contained 1 μM of RNA substrate and 10, 50 or 100 μM of each B-CePs compound. Figure 2 summarizes the values of ΔTm obtained by adding increasing concentrations of B-CePs 1–5. […]
The ability of the tested compounds to stabilize the TAR RNA structure was measured by the increase in the melting temperature of the oligoribonucleotide in the presence of different concentrations of each compound. […] Fluorescence emission of FAM was read by using a Light Cycler 480 II (Roche, Basel, CH) with emission at λ = 510 nm and correlated to the melting temperature of the oligoribonucleotide. […]

[2] = test system: recombinant full-length HIV-1 NC; test: High-throughput screening (HTS): inhibition of NC-mediated melting of TAR RNA hairpin; type: biochemical; settings: 0.1 μM TAR, 0.8 μM NC, compound pre-incubated 37 °C 2 h; mean of three experiments; read-out: IC50, inhibition of NC-mediated melting of individual TAR RNA hairpin
Description: This assay is based on the doubly labeled TAR construct used above in the FQA experiments and is extensively employed to screen for inhibitors of NC melting activity. After preliminary controls to ensure the absence of direct quenching activity by the compounds under investigation, their ability to inhibit TAR RNA melting was evaluated in the presence of recombinant full-length HIV-1 NC. By adding increasing amounts of B-CePs, we determined the concentration of each compound that induced a 50% reduction in the destabilizing activity of NC (i.e., IC50) on TAR.
High-throughput screening (HTS) was performed to identify the inhibitors of NC chaperone activity on TAR. We used a VictorIII (PerkinElmer) microplate reader with 485 and 535 nm as the excitation and emission wavelengths. The TAR RNA hairpin was formed by snap cooling in the 1× BPE buffer, as described above. A 1 μM aliquot of TAR, which bore 5′-FAM and 3′-DAB modifications, was folded in 1× BPE buffer. The samples were then diluted to 0.1 μM in 1× BPE buffer. Increasing concentrations of compound (0, 0.1, 0.5, 1, 5, 10, 50, 100 μM final) were added to each sample and incubated at 37 °C for 2 h before introducing NC to a final concentration of 0.8 μM (for a 1:8 oligo to NC molar ratio). The plate was immediately read at room temperature three times with 1 min intervals, unless differently specified. The experimental data were fitted as reported earlier to enable calculation of the respective IC50 value.16 Each experiment was performed in triplicate to calculate an average and standard deviation.

[3] = test system: TAR RNA; test: ESI-MS of reaction mixtures of B-CePs with TAR; type: binding, HIV-1
Description: To elucidate the molecular details of the products observed by PAGE, we further characterized the outcome of the reaction with TAR by electrospray ionization-mass spectrometry (ESI-MS). A preliminary determination was accomplished on the individual TAR construct, and a representative ESI-MS spectrum is provided in Figure 4A. Only the region containing the 5-charge state is shown for the sake of clarity. The detected species labelled [TAR-5H]^5− in Figure 4A afforded an experimental mass of 9286.25 Da, which matches the monoisotopic value of 9286.24 Da calculated from the RNA sequence very closely (Table 1). Successively, we performed the experiment by reacting compound 1 with TAR at 1 μM. After 2 h of incubation, at 37 °C, the reaction mixture was submitted to ethanol precipitation to achieve quenching and desalting, which enabled a direct infusion ESI-MS analysis. […] In the presence of nucleic acids, aziridinium preferentially attacks N7 of guanines on the substrate, forming different types of adduct (Scheme S1 in Supplementary Materials).^22 Analyzing a new species in Figure 4B, their masses matched those of products generated by either mono- or bis-alkylation reactions. The species TAR + 1B, displaying a mass of 9548.49 u, corresponded to bi-functional adducts formed by the reaction of both 3-chloropiperidine reactive moieties with the RNA strand (labelled [TAR + 1B − 5H]^5− in the inset in Figure 4B). Differently, TAR + 1M species with a mass of 9566.49 u was assigned to mono-functional adducts, in which only one of the 3-chloropiperidines reacted with the substrate, whereas the other was hydrolyzed to 3-hydroxyl by the aqueous environment (labelled [TAR + 1M − 5H]^5− in the inset in Figure 4B). Table 1 summarizes the experimental and calculated masses of the new products and provides the assignment of the various species detected in Figure 4B.
Figure 4 Representative electrospray-ionization mass spectrometry (ESI-MS) spectra of reaction mixtures obtained by incubating TAR (1 μM) with increasing B-CeP 1 (A:0, B:1, C:10, D:50 μM) at 37 °C for 2 h in a BPE buffer (pH 7.4). The spectra B–D show the concentration-dependent reactions induced by B-CeP 1 on TAR. Greater stoichiometries corresponding to combinations of mono- and bi-functional adducts, were detected and indicated in orange in the figure. The spectra were recorded in 150 mM ammonium acetate. Lower intensity signals near free/adducted species consist of typical sodium and ammonium adducts. Only region containing the 5-charge state is shown for the sake of clarity.
The results shown in Figure 4C,D show the reaction products obtained, further increasing the concentration of compound 1, with 1 μM TAR solution incubated with 10 and 50 μM of B-CeP 1, respectively. […]

[4] = cited from earlier work
[5] = test system: TAR RNA; test: Electrophoretic Mobility Shift Assay (EMSA), non-denaturing PAGE; type: binding, HIV-1; settings: 1 μM folded TAR, 0-50 μM compound, 2 h 37 °C, BPE buffer pH 7.4
Description: To further evaluate the interaction of B-CePs to TAR RNA, Electrophoretic Mobility Shift Assay (EMSA) was used as a simple tool to visualize the putative interaction of compound 1 with TAR. The RNA was folded in its hairpin secondary structure, incubated for 2 h at 37 °C with increasing concentrations of compound 1 (0, 1, 5, 10, 25, 35, 50 μM), and the reaction products were resolved by polyacrylamide gel electrophoresis (PAGE). Figure 3 provides the results obtained in non-denaturing PAGE.
Figure 3 Non-denaturing polyacrylamide gel electrophoresis (PAGE) (PAA 12%) in TBE 1× showing the concentration-dependence of the interaction of B-CeP 1 with TAR. Folded TAR hairpin 1 μM was incubated with increasing concentrations of compound (0, 1, 5, 10, 25, 35, 50 μM) for 2 h at 37 °C with a BPE buffer (pH 7.4).
Electrophoretic Mobility Shift Assay (EMSA) was used to assess the ability of compound 1 to directly interact to TAR RNA construct. Prior to incubation with compound, TAR RNA was heated to 95 °C for 5 min and then ice-cooled in order to assume the proper hairpin structure. TAR RNA construct (1 μM) was then incubated with increasing concentrations (from 0 to 50 μM) of B-CeP 1, at 37 °C for 2 h in 1× BPE buffer (pH 7.4). […] Fluorescence in gel system was detected on a Geliance 600 Imaging System (PerkinElmer, Waltham, MA, USA).

Row | SMILES | Tm increase of TAR RNA (stabilization effect) [1] | IC50 [2] [µM] | also measured
1 | COC(=O)[C@@H](CCCCN1CC(Cl)CC(C)(C)C1)N1CC(Cl)CC(C)(C)C1 (some centres unmarked) [Compound 5] | much weaker stabilization effect | 4.78 ± 0.71 | 
2 | CC1(C)CC(Cl)CN(CCCCCCN2CC(Cl)CC(C)(C)C2)C1 (centres unmarked) [Compound 3] |  | 3.55 ± 0.37 | 
3 | COC(=O)[C@H](CCCCN1CC(Cl)CC(C)(C)C1)N1CC(Cl)CC(C)(C)C1 (some centres unmarked) [Compound 4] | much weaker stabilization effect | 5.09 ± 0.05 | 
4 | CC1(C)CC(Cl)CN(CCCCCN2CC(Cl)CC(C)(C)C2)C1 (centres unmarked) [Compound 2] |  | 2.75 ± 0.7 | Relative reactivity towards the TAR construct (comparison of ESI-MS spectra) ([3]; same B-CeP/TAR molar ratio (10 μM compound, 1 μM TAR)): most reactive; Effect of the longer linker on cell permeability and cytotoxicity ([4]; ref [26]): increases cell permeability and cytotoxicity
5 | CC1(C)CC(Cl)CN(CCCN2CC(Cl)CC(C)(C)C2)C1 (centres unmarked) [Compound 1] |  | 4.75 ± 0.15 | Binding stoichiometries on TAR detected by ESI-MS ([3]; 1 μM TAR with 10 and 50 μM compound): up to five equivalents; Products of the reaction with TAR detected by ESI-MS ([3]; 1 μM TAR, 37 °C 2 h, BPE buffer): covalent adducts; Fragmentation of the oligoribonucleotide chain of TAR RNA ([3]; ESI spectrometry and gel electrophoresis): not detected; Concentration at which binding events (band shift) reach a plateau [5]: 25 µM; Cytotoxicity ([4]; ref [22],[25]): low cytotoxicity
